PubChem BioAssay (NCI)
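Growth conditions: 96-well plates. Treatment: test compound, 48 hours, 5 concentrations. Analysis: linear interpolation between bracketing concentrations; unreached endpoints set to highest concentration. At the GI50, growth is halved. TGI marks complete inhibition of growth.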

Columns and labels:
Assay in all cases: DTP human tumour cell line panel, 48 h
[1] = test system: DU-145 prostate
[2] = test system: MDA-MB-435
[3] = test system: HS 578T breast
[4] = test system: BT-549 breast
[5] = test system: PC-3 prostate
[6] = test system: MDA-N
[7] = test system: XF 498 CNS
[8] = test system: M19-MEL melanoma

Work on `CC(=O)N=c1ccc2nc3c(cc(N)c4ccccc43)oc-2c1` yielded a GI50 [1] of 1.66 µM, a TGI [1] of 3.03 µM and a GI50 [2] of 0.207 µM. The TGI [2] was 0.421 µM, the TGI [3] was > 23.8 µM and the GI50 [4] was 2.47 µM. For the same compound, the TGI [4] was 7.46 µM, the GI50 [5] was 1.05 µM and the TGI [5] was 5.83 µM.
`CCCCCCCC[N+](C)(CCCCCCCC)CCCCCCCC` showed a GI50 [1] of 0.414 µM, a TGI [1] of 1.41 µM and a GI50 [2] of 0.273 µM. For the same compound, the TGI [2] was 1.01 µM, the GI50 [3] was 0.471 µM and the TGI [3] was 2.99 µM. For the same compound, the GI50 [4] was 0.309 µM, the TGI [4] was 0.977 µM and the GI50 [5] was 0.24 µM. It also gave a TGI [5] of 1.02 µM.
In the case of `CN(C)CCCc1c[nH]c2ccccc12`, the TGI [1] is reported as > 100 µM, the TGI [2] is reported as > 100 µM and the TGI [3] is reported as > 100 µM. The TGI [4] was > 100 µM, the TGI [6] was > 100 µM and the TGI [5] was > 100 µM.
In the case of `CCCN(CCC)c1ccc(/C=N/NC(=O)c2cccnc2)c(Cl)c1`, the GI50 [1] is reported as 17.8 µM, the TGI [1] is reported as 49 µM and the GI50 [2] is reported as 2.68 µM. It also gave a TGI [2] of 12.4 µM, a GI50 [3] of 14.3 µM and a TGI [3] of 47.3 µM. For the same compound, the GI50 [4] was 12.9 µM, the TGI [4] was 33.4 µM and the GI50 [5] was 14.1 µM. The TGI [5] was > 81.3 µM.
In the case of `COc1ccc2c(c1)CC[C@@H]1[C@@H]2CC[C@]2(C)C(c3ccco3)=C(C=O)C[C@@H]12`, the GI50 [1] is reported as 7.82 µM, the TGI [1] is reported as 27 µM and the GI50 [2] is reported as 2.21 µM. The TGI [2] was 5.88 µM, the GI50 [3] was 23.2 µM and the TGI [3] was 60 µM. The GI50 [4] was 17.7 µM, the TGI [4] was 43.3 µM and the GI50 [5] was 5.66 µM. It also gave a TGI [5] of 37.3 µM.
`Nc1ncnc2c1ncn2C1OC(CO)=CC1O` (stereo not given) was tested, and the TGI [1] was > 37.5 µM, the TGI [2] was > 37.5 µM and the TGI [3] was > 37.5 µM. For the same compound, the TGI [6] was > 37.5 µM and the TGI [5] was > 37.5 µM.
Work on `COc1cc(-c2cc(-c3nc4ccc(Cl)cc4[nH]3)[nH]n2)cc(OC)c1OC` yielded a GI50 [1] of 3.27 µM, a TGI [1] of 13.4 µM and a GI50 [2] of 3.3 µM. For the same compound, the TGI [2] was 12.7 µM, the GI50 [3] was 3.58 µM and the TGI [3] was 45.5 µM. The GI50 [4] was 2.54 µM, the TGI [4] was 8.35 µM and the GI50 [5] was 2.47 µM. The TGI [5] was 8.29 µM.
For `COC1=CC(c2ccc[nH]2)=N/C1=C\c1ccc[nH]1`, the GI50 [1] was 0.163 µM, the TGI [1] was 13.3 µM and the GI50 [2] was 0.0737 µM. For the same compound, the TGI [2] was 4.24 µM, the GI50 [3] was 0.292 µM and the TGI [3] was 3.56 µM. The GI50 [4] was 0.145 µM, the TGI [4] was 5.71 µM and the GI50 [5] was 0.158 µM. It also gave a TGI [5] of 13.6 µM.
For `NS(=O)(=O)c1ccc(N2N=C3c4ccccc4CC3C2c2ccc(Cl)cc2)cc1` (stereo not given), the GI50 [1] was 14.2 µM, the TGI [1] was 36.7 µM and the GI50 [2] was 16.1 µM. For the same compound, the TGI [2] was 37.2 µM, the GI50 [3] was 4.61 µM and the TGI [3] was 19.2 µM. It also gave a GI50 [5] of 7.17 µM and a TGI [5] of 22.6 µM.
With `C=C1C(=O)O[C@H]2[C@H]1CC/C(COC(=O)NCc1c[nH]c3ccc(Cl)cc13)=C\CC[C@@]1(C)O[C@@H]21` the GI50 [1] was 1.2 µM, the TGI [1] was 2.65 µM and the GI50 [2] was 1.12 µM. For the same compound, the TGI [2] was 2.48 µM, the GI50 [3] was 2.45 µM and the TGI [3] was 6.82 µM. For the same compound, the GI50 [4] was 1.18 µM, the TGI [4] was 2.61 µM and the GI50 [5] was 1.52 µM. It also gave a TGI [5] of 3.08 µM.
With `Cc1[nH]c(=O)[nH]c(=O)c1CO` the GI50 [1] was > 100 µM, the TGI [1] was > 100 µM and the GI50 [2] was > 100 µM. For the same compound, the TGI [2] was > 100 µM, the GI50 [3] was > 100 µM and the TGI [3] was > 100 µM. For the same compound, the GI50 [4] was > 100 µM, the TGI [4] was > 100 µM and the GI50 [5] was > 100 µM. For the same compound, the TGI [5] was > 100 µM.
`C[C@@H]1C=C2C(=O)O[C@@H]3CC[C@H](C1)[C@]23O` was tested, and the GI50 [1] was 2.14 µM, the TGI [1] was 5.78 µM and the GI50 [2] was 3.39 µM. The TGI [2] was 13.7 µM, the GI50 [3] was 12.7 µM and the TGI [3] was > 100 µM. It also gave a GI50 [4] of 4.4 µM, a TGI [4] of 17.3 µM and a GI50 [5] of 3.68 µM. For the same compound, the TGI [5] was 14.9 µM.
In the case of `COc1ccc2c(c1)OC[C@@H]1c3cc4c(cc3O[C@H]21)OCO4`, the TGI [7] is reported as > 100 µM.
For `N#Cc1ccnc(N2C(=O)CC[C@H]2C(=O)N(c2cncc(F)c2)[C@H](C(=O)NC2CC(F)(F)C2)c2ccccc2Cl)c1`, the GI50 [1] was 82.5 µM, the TGI [1] was > 100 µM and the GI50 [2] was 64 µM. The TGI [2] was > 100 µM, the GI50 [3] was 99.6 µM and the TGI [3] was > 100 µM. The GI50 [4] was > 100 µM, the TGI [4] was > 100 µM and the GI50 [5] was > 100 µM. The TGI [5] was > 100 µM.
With `COc1cc(/C=C2\COc3ccc(O)c(O)c3C2=O)cc(OC)c1` the GI50 [1] was 1.71 µM, the TGI [1] was 4.26 µM and the GI50 [2] was 1.52 µM. It also gave a TGI [2] of 3.98 µM, a GI50 [3] of 2.66 µM and a TGI [3] of 17.1 µM. For the same compound, the GI50 [4] was 1.56 µM, the TGI [4] was 4.97 µM and the GI50 [5] was 1.61 µM. For the same compound, the TGI [5] was 7.85 µM.
`O=c1c2ccccc2c2nc3ccccc3nc2n1C1CCCCC1` was tested, and the TGI [8] was > 100 µM.
`O=C(NC1=NC2C=CC([N+](=O)[O-])=CC2S1)C(=O)Nn1c(=S)[nH]c2ccccc2c1=O` (stereo not given) was tested, and the TGI [2] was > 100 µM, the TGI [3] was > 100 µM and the TGI [4] was > 100 µM. The TGI [6] was > 100 µM and the TGI [5] was > 100 µM.
In the case of `Cc1nc(NC(=O)CCCN2C(=O)c3cccc4cccc(c34)C2=O)sc1C(=O)Nc1cc(C(=O)NCCCN(C)C)n(C)c1`, the GI50 [1] is reported as > 100 µM, the TGI [1] is reported as > 100 µM and the GI50 [2] is reported as > 100 µM. For the same compound, the TGI [2] was > 100 µM, the GI50 [3] was > 100 µM and the TGI [3] was > 100 µM. For the same compound, the GI50 [5] was > 100 µM and the TGI [5] was > 100 µM.
With `CCC(C)C(NC(=O)C1CCCN1C(=O)C(NC(=O)C(C)N)C(C)C)C(N)=O` (stereo not given) the GI50 [1] was > 100 µM, the TGI [1] was > 100 µM and the GI50 [2] was > 100 µM. The TGI [2] was > 100 µM, the GI50 [3] was > 100 µM and the TGI [3] was > 100 µM. For the same compound, the GI50 [4] was > 100 µM, the TGI [4] was > 100 µM and the GI50 [5] was > 100 µM. The TGI [5] was > 100 µM.
In the case of `Cc1ccc(S(=O)(=O)N2CCc3ccc(O)c4c3C2Cc2cc(Cl)ccc2-4)cc1` (stereo not given), the GI50 [1] is reported as 0.912 µM, the TGI [1] is reported as 2.4 µM and the GI50 [2] is reported as 0.635 µM. For the same compound, the TGI [2] was 1.45 µM, the GI50 [3] was 0.889 µM and the TGI [3] was 6.68 µM. The GI50 [4] was 1.95 µM, the TGI [4] was 9.66 µM and the GI50 [5] was 0.917 µM. It also gave a TGI [5] of 6.8 µM.
In the case of `Cc1ccc(C)c(-c2csc(Nc3ccc(C)c(C)c3)n2)c1`, the GI50 [1] is reported as > 100 µM, the TGI [1] is reported as > 100 µM and the GI50 [2] is reported as > 100 µM. The TGI [2] was > 100 µM, the GI50 [3] was 30.6 µM and the TGI [3] was > 100 µM. For the same compound, the GI50 [4] was > 100 µM, the TGI [4] was > 100 µM and the GI50 [5] was 7 µM. The TGI [5] was > 100 µM.
For `Cn1cc(C2=C(c3cn(CCN)c4ccccc34)C(=O)NC2=O)c2ccccc21`, the GI50 [1] was 8.63 µM, the TGI [1] was > 25 µM and the GI50 [2] was 3.81 µM. The TGI [2] was 19.4 µM, the GI50 [3] was 4.32 µM and the TGI [3] was 20.2 µM. For the same compound, the GI50 [4] was 7.82 µM, the TGI [4] was > 23.8 µM and the GI50 [5] was 5.14 µM. For the same compound, the TGI [5] was > 19.7 µM.
Compound `COc1ccc2nc3ccccc3c(NCCCCCCN(C)CCCl)c2c1` has a TGI [7] of 0.845 µM and a TGI [8] of 1.65 µM.
In the case of `COc1ccc(-c2ccc(C3CC(c4ccc(Cl)cc4)=NN3)o2)c([N+](=O)[O-])c1` (stereo not given), the GI50 [1] is reported as > 100 µM, the TGI [1] is reported as > 100 µM and the GI50 [2] is reported as > 100 µM. For the same compound, the TGI [2] was > 100 µM, the GI50 [3] was > 100 µM and the TGI [3] was > 100 µM. For the same compound, the GI50 [4] was > 100 µM, the TGI [4] was > 100 µM and the GI50 [5] was > 100 µM. The TGI [5] was > 100 µM.
